row,SMILES,melting point [°C]
1,CNc1ncc([N+](=O)[O-])cc1C#N,181 to 183
2,CN(Cc1nn[nH]n1)C(=O)c1ccccc1,136 to 138
3,NC(=O)c1cc(F)ccc1N,143 to 145
4,Nc1nc(-c2cccc(Br)c2)cs1,121 to 125
5,CCN(CC)S(=O)(=O)c1ccc(Oc2ccc(C=O)cc2OC)c([N+](=O)[O-])c1,134 to 136
6,O=C(O)c1ccc(COc2ccc(Cl)cc2)cc1,201 to 203
7,CC1CN(c2ccccc2C=O)CC(C)O1 (configuration not stated),94 to 96
8,COc1ccccc1NS(=O)(=O)c1ccc(O)c(C(=O)O)c1,172 to 174
9,CCC(=O)Nc1ccc(N)cc1,82 to 84
10,Cc1noc(C)c1C(C)CC(=O)O (configuration not stated),95 to 97
11,O=C(O)c1nn(-c2ccccc2)cc1OC(F)F,134 to 136
12,Cc1cc(C(=O)O)c(C)n1-c1ccc(C#N)cc1,249 to 251
13,COc1ccc(-n2c(C)cc(C=O)c2C)cc1,133 to 135
14,Cc1c(N)cccc1NC(=O)c1ccccc1,193 to 195
15,Cc1ccccc1SC(C(=O)O)c1ccccc1 (configuration not stated),100 to 102
16,Cc1c(Br)ccc(C(=O)O)c1N,221 to 223
17,O=C(O)[C@H](Cc1ccccc1)N1C(=O)c2ccccc2C1=O,179 to 181
18,COc1ccccc1CC(C)(C)C(=O)O,44 to 46
19,CN(c1ccc(O)cc1)S(=O)(=O)c1ccccc1,131 to 133
20,Cc1cc(Br)c(N)cc1[N+](=O)[O-],115 to 117
21,O=C(O)c1cc(-c2ccc(F)cc2)nc2onc(C3CC3)c12,229 to 231
22,CC(C)(C)OC(=O)Cc1cccc(N)c1,47 to 49
23,O=[N+]([O-])c1ccc(COc2ccccc2)cc1,87 to 89
24,COC(=O)c1c(N)sc(C)c1-c1ccc(Cl)cc1Cl,94 to 96

row,SMILES,melting point [°C]
1,Cc1ccc(-c2nc(N)sc2C)cc1,173 to 175
2,CC(C)C(=O)N1CCCC(C(=O)O)C1 (configuration not stated),131 to 133
3,CSc1nnnn1-c1cccc(N)c1,113 to 115
4,C#CCOc1ccc(C(C)=O)cc1,72 to 74
5,O=C(O)C1CCCN1C(=O)c1cccs1 (configuration not stated),145 to 147
6,CC(C)n1ncc2cc(S(=O)(=O)Cl)ccc21,88 to 90
7,CC(=O)NCc1ccc(N)cc1,92 to 94
8,NC(=O)CNCCC1CCCCC1,111 to 113
9,Cc1csc2ccc(C#N)cc12,97 to 99
10,O=C1C=C(Br)C(=O)N1,151 to 153
11,COc1cc(CC#N)ccc1SC(F)(F)F,59 to 61
12,O=C(O)c1sc2cccc(F)c2c1COc1ccccc1,206 to 208
13,CCn1c(=O)n(CC(=O)O)c2ccccc21,229 to 231
14,NC(=O)c1cc(-c2ccccc2)on1,202 to 204
15,O=C(O)c1ccc(Oc2ccccc2[N+](=O)[O-])cc1,196 to 198
16,S=c1[nH][nH]c(=Nc2cccc(Br)c2)s1,225 to 227
17,Nc1ccc(CC(=O)N2CCN(c3ncccn3)CC2)cc1,193 to 195
18,CCNC(=O)c1ccc(C)c(N)c1,74 to 76
19,Nc1ccc(C(=O)NC2CCCCC2)cc1,175 to 177
20,Nc1ccccc1-c1ncc[nH]1,132 to 134
21,OCc1ccc(OCC(F)(F)F)cc1,64 to 66
22,Oc1ccc2ccc(C(F)(F)F)nc2c1,255 to 257
23,Cc1ccc(Nc2nnc(S)s2)cc1Cl,210 to 212
24,Cc1sc(-n2c(C)ccc2C)c(C(=O)O)c1C,171 to 173

row,SMILES,melting point [°C]
1,O=C(CCl)Nc1ccc(OC(F)(F)F)cc1,71 to 74
2,O=C1CC(=O)N(c2cccnc2)C(=S)N1,229 to 231
3,COC(=O)C(=O)CC(=O)c1ccc(Cl)s1,103 to 105
4,O=[N+]([O-])c1ccc(OC2CCNCC2)cc1,97 to 99
5,Cc1ccc(C(=O)C(=O)O)cc1,176 to 178
6,Cc1sc2nc(S)[nH]c(=O)c2c1C,328 to 330
7,Cc1nc(-c2cccc(O)c2)no1,126 to 128
8,CCC(CC)C(N)=S,55 to 57
9,COc1ccc(C(=O)CCl)cc1Br,85 to 87
10,Cc1cc(N)n(Cc2ccccn2)n1,94 to 96
11,O=C(O)C(=Cc1ccco1)NC(=O)c1ccccc1,209 to 211
12,Cc1cc(=O)oc2ccc(OCC(=O)O)cc12,153 to 155
13,Cc1ccccc1NC(=O)C(C)Cl (configuration not stated),112 to 114
14,CC(C)(C)S(=O)(=O)CC(=O)O,89 to 91
15,Nc1ncc(C=NO)s1,211 to 213
16,Cc1cccc(-n2nnc(C(=O)O)c2C)c1,157 to 159
17,O=[N+]([O-])c1cnn(CC2CO2)c1 (configuration not stated),68 to 70
18,CN(C(=O)c1ccccc1N)C1CCCCC1,141 to 143
19,Cc1noc(S)n1,123 to 125
20,COCc1nnc(-c2cccc(C(=O)O)c2)o1,139 to 141
21,Nc1ccccc1NC(=O)CC1C=CCC1 (configuration not stated),128 to 130
22,O=C(O)CCC(=O)NCC(=O)c1ccc(F)cc1F,173 to 175
23,O=C1C(Br)CCN1C1CCOCC1 (configuration not stated),67 to 69
24,Cc1ccc(-c2nc(C)c(C(=O)O)s2)o1,215 to 217

row,SMILES,melting point [°C]
1,Cn1cnnc1-c1ccccc1N,133 to 135
2,CC(C)(C)OC(=O)NC1CCCCC1(C)C(=O)O (configuration not stated),149 to 151
3,O=C(O)CC1CCCN1Cc1nc2ccccc2c(=O)[nH]1 (configuration not stated),197 to 199
4,NNc1ncnc2sc(-c3ccccc3)cc12,263 to 265
5,COC(=O)C1=NN(c2ccccc2)C(c2ccccc2)C1 (configuration not stated),125 to 127
6,O=C(O)CCNc1ccc(C(F)(F)F)cc1[N+](=O)[O-],130 to 134
7,Cc1cccc(N2CCN(CCN)CC2)c1C,60 to 62
8,CC(C)C(NC(=O)COc1ccccc1)C(=O)O (configuration not stated),165 to 167
9,Cc1nn(-c2ccc(F)cc2)c2ncc(C(=O)O)cc12,347 to 349
10,COc1cccc(C(=O)c2c[nH]c3ncccc23)c1,139 to 141
11,N#CC=Cc1cccnc1,104 to 106
12,Cc1ccc(C#N)c(N2CCCC2)c1,68 to 70
13,NS(=O)(=O)c1cnc(Cl)s1,128 to 130
14,O=C(O)C1CCCN(S(=O)(=O)c2ccc(Br)cc2)C1 (configuration not stated),207 to 209
15,O=C(O)c1cc(S(=O)(=O)N2CCCC2)ccc1Br,216 to 218
16,Cc1nc(C)n(-c2ccc(C(=O)O)cc2)n1,289 to 291
17,Nc1c(F)ccc(Br)c1C(=O)O,128 to 130
18,Clc1ccc2nccn2n1,114 to 116
19,NCC(=O)Nc1cccc(F)c1,82 to 84
20,NNc1nc(-c2ccncc2)no1,189 to 191
21,CCOc1ccc(-c2nc(CCl)co2)cc1,102 to 104
22,CCS(=O)(=O)c1ccc2oc(S)nc2c1,188 to 190
23,CCOC(=O)c1cnc2c(OC)cc(Cl)c(OC)c2c1Cl,152 to 154
24,Nc1nc2cc(Cl)ccc2n1CCCn1ccnc1,229 to 231

row,SMILES,melting point [°C]
1,Cc1cc(C(=O)CCl)c(C)n1-c1nccs1,85 to 95
2,Cc1csc(C(O)C(F)(F)F)n1 (configuration not stated),122 to 124
3,COc1ccc(CC2(C)NC(=O)NC2=O)cc1 (configuration not stated),196 to 198
4,Cc1ccc(C(C)C)c(Oc2ccc(C=O)cc2[N+](=O)[O-])c1,109 to 111
5,Cc1cc(C#N)ccc1NC1CCC(O)CC1 (configuration not stated),119 to 121
6,CC1CN(S(=O)(=O)c2cccc(C(=O)O)c2)CC(C)O1 (configuration not stated),188 to 190
7,COC(=O)c1ccccc1CCC(=O)O,74 to 76
8,COC(=O)c1ccc(Br)c(C)c1N,79 to 81
9,FC(F)(F)Cc1nnc2ccc(Cl)nn12,137 to 139
10,COC(=O)c1cc(Oc2ccc(Cl)cc2)ccc1N,74 to 76
11,CNc1ccc(Cl)nn1,194 to 196
12,Cn1cc(SSc2cnn(C)c2)cn1,111 to 113
13,NNC(=O)c1ccc2c(=O)n3c(nc2c1)CCC3,268 to 270
14,C#CCNC(=O)c1cccc(C#N)c1,132 to 134
15,NCc1ccc(N2CCNCC2)cc1,163 to 165
16,CC(Oc1ccc2c(c1)CCC2)C(=O)O (configuration not stated),103 to 105
17,O=C1CCNc2ccc(F)cc2N1,147 to 149
18,ClCc1nc(-c2ccccc2Cl)no1,37 to 39
19,CCc1noc(-c2ccc(N)c(Cl)c2)n1,89 to 91
20,COC(=O)c1nscc1N,54 to 56
21,CC(=O)Nc1ccc(Br)cc1[N+](=O)[O-],104 to 106
22,N#Cc1cc(N)ccc1N1CCC(O)CC1,137 to 139
23,CC(=CC(=O)O)c1ccccc1C(F)(F)F,133 to 135
24,Cc1cc(C)nc(-n2cc(C(=O)O)c(C)n2)n1,287 to 289

row,SMILES,melting point [°C]
1,O=C(O)CCCCOc1ccc2oc3ccccc3c2c1,114 to 116
2,CS(=O)(=O)CC1(CBr)CCOCC1,97 to 99
3,CC1CN(S(=O)(=O)CCN)CC(C)O1 (configuration not stated),73 to 75
4,O=C(O)c1c(O)cc(Cl)cc1Cl,189 to 191
5,O=C(O)c1csc(-c2cccc([N+](=O)[O-])c2)n1,214 to 216
6,COc1cccc(-c2nn(-c3ccccc3)cc2C(=O)O)c1,156 to 158
7,Cc1cc(C)c(C(N)=O)c(S)n1,167 to 170
8,N#CCC(=O)c1ccc(OC(F)F)cc1,80 to 82
9,CCC(CC)c1nnc(N)s1,158 to 160
10,O=C(O)c1ccc(COc2ccc(Br)cc2)o1,194 to 196
11,O=CC1=Cc2cc(Br)ccc2OC1,103 to 105
12,CC(C)CN1C(=O)CC(=O)NC1=O,144 to 146
13,Cc1[nH]c2c(C(=O)O)cccc2c1C,206 to 208
14,COc1ccc(-n2c(S)nnc2-c2ccncc2)cc1,242 to 244
15,CN(C)C=C(Br)C=O,48 to 50
16,N#CCOc1ccc(CO)cc1,98 to 100
17,CC(=O)c1c(C)oc2nc(Br)nn12,118 to 120
18,Cn1cc(C(=O)O)c(=O)c2cc(Cl)ccc21,302 to 304
19,CCCCn1c(N)c(NC2CCCC2)c(=O)[nH]c1=O,250 to 252
20,CCCCCS(=O)(=O)CC(=O)O,69 to 71
21,Clc1ccc2nnc(C3CCCO3)n2n1 (configuration not stated),139 to 141
22,Nc1nc(-c2ccccc2OC(F)F)n[nH]1,188 to 190

# Reference: a melting point compilation (Tetko et al.)
